Experimental data taken from patent US8119681B2, “2-[1-phenyl-5-hydroxy or methoxy-4alpha-methyl-hexahydrocyclopenta [ƒ]indazole-5-YL]ethyl phenyl derivatives as glucocorticoid receptor ligands” (Merck Sharp & Dohme Corp., priority 2006, dated 2012).

Biological target: T1, human GR (Homo sapiens, UniProt P04150)
T1 sequence (P04150 1-777): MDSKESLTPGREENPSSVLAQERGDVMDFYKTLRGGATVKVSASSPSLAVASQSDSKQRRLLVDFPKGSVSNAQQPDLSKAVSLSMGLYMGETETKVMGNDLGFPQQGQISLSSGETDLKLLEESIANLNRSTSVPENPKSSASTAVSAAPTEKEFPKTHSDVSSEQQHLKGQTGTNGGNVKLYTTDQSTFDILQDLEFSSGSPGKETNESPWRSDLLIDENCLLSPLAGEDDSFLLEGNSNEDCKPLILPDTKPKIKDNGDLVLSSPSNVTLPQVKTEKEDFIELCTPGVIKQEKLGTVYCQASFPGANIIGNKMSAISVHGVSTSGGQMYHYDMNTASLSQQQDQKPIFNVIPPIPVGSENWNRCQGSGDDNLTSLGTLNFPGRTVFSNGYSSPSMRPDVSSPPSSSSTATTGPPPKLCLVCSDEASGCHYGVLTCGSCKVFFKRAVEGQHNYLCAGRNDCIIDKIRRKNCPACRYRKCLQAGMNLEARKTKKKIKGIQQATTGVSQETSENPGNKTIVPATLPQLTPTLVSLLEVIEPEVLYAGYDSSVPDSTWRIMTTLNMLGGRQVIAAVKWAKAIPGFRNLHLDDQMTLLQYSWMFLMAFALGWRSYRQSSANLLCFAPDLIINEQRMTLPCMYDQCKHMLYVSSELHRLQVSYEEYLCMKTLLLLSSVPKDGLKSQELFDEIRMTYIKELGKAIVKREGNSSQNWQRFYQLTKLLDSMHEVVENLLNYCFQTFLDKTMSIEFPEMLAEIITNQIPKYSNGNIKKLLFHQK
Assay: Transrepression Assay (GITAR), TNFα-β-lactamase reporter gene in U937 cells
Format: cell-based
Design: U937 cells contain an endogenous glucocorticoid receptor (GR); endogenous in cells; host or cells: U937 cells stably transfected with the TNF-α promoter/β-lactamase reporter only
Conditions: U-937, read-out: maximal activity in the transrepression assay
Summary of the method: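 Reporter readout used CCF2-AM loading for 70–90 min at room temperature after overnight (~18 h, 37 °C) PMA (5 ng/ml final) and LPS (100 ng/ml final) stimulation of compound-treated (30–45 min) TNFα-β-lactamase U937 cells expressing native GR. Activity was normalised to 100 nM dexamethasone repression.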

SMILES	Emax [%]
CC(C)NC(=O)Oc1ccccc1CC[C@]1(O)CCC2=Cc3c(cnn3-c3ccc(F)cc3)C[C@@]21C [Example 136, 2-{2-[(4αS,5R)-1-(4-fluorophenyl)-5-hydroxy-4α-methyl-1,4,4α,5,6,7-hexahydrocyclopenta[f]indazol-5-yl]ethyl}phenyl isopropylcarbamate]	5 to 100
C[C@]12Cc3cnn(-c4ccc(F)cc4)c3C=C1CC[C@@]2(O)CCc1ccccc1CO [Example 149, (4αS,5R)-1-(4-fluorophenyl)-5-{2-[2-(hydroxymethyl)phenyl]ethyl}-4α-methyl-1,4,4α,5,6,7-hexahydrocyclopenta[f]indazol-5-ol]	5 to 100

Same assay, conditions: U-937; 100 nM dexamethasone = 100% activity; read-out: maximal activity in the transrepression assay

SMILES	Emax [%]
CCNC(=O)Nc1c(F)cccc1CC[C@]1(O)CCC2=Cc3c(cnn3-c3ccc(F)cc3)C[C@@]21C [Example 132, N-ethyl-N′-(2-fluoro-6-{2-[(4αS,5R)-1-(4-fluorophenyl)-5-hydroxy-4α-methyl-1,4,4α,5,6,7-hexahydrocyclopenta[f]indazol-5-yl]ethyl}phenyl)urea]	5 to 100
CC(C)NC(=O)Nc1ccc(F)cc1CC[C@]1(O)CCC2=Cc3c(cnn3-c3ccc(F)cc3)C[C@@]21C [Example 133, N-(4-fluoro-2-{2-[(4αS,5R)-1-(4-fluorophenyl)-5-hydroxy-4α-methyl-1,4,4α,5,6,7-hexahydrocyclopenta[f]indazol-5-yl]ethyl}phenyl)-N′-isopropylurea]	5 to 100
COC(=O)Oc1ccccc1CC[C@]1(O)CCC2=Cc3c(cnn3-c3ccc(F)cc3)C[C@@]21C [Example 135, 2-{2-[(4αS,5R)-1-(4-fluorophenyl)-5-hydroxy-4α-methyl-1,4,4α,5,6,7-hexahydrocyclopenta[f]indazol-5-yl]ethyl}phenyl methyl carbonate]	5 to 100
CCNS(=O)(=O)c1ccccc1CC[C@]1(O)CCC2=Cc3c(cnn3-c3ccc(F)cc3)C[C@@]21C [Example 137, N-ethyl-2-{2-[(4αS,5R)-1-(4-fluorophenyl)-5-hydroxy-4α-methyl-1,4,4α,5,6,7-hexahydrocyclopenta[f]indazol-5-yl]ethyl}benzenesulfonamide]	5 to 100
CNS(=O)(=O)c1ccccc1CC[C@]1(O)CCC2=Cc3c(cnn3-c3ccc(F)cc3)C[C@@]21C [Example 139, 2-{2-[(4αS,5R)-1-(4-fluorophenyl)-5-hydroxy-4α-methyl-1,4,4α,5,6,7-hexahydrocyclopenta[f]indazol-5-yl]ethyl}-N-methylbenzenesulfonamide]	5 to 100
C[C@]12Cc3cnn(-c4cccc(F)c4)c3C=C1CC[C@@]2(O)CCc1ccccc1S(N)(=O)=O [Example 140, 2-{2-[(4αS,5R)-1-(3-fluorophenyl)-5-hydroxy-4α-methyl-1,4,4α,5,6,7-hexahydrocyclopenta[f]indazol-5-yl]ethyl}benzenesulfonamide]	5 to 100
C[C@]12Cc3cnn(-c4ccccc4)c3C=C1CC[C@@]2(O)CCc1ccccc1S(N)(=O)=O [Example 141, 2-{2-[(4αS,5R)-5-hydroxy-4α-methyl-1-phenyl-1,4,4α,5,6,7-hexahydrocyclopenta[f]indazol-5-yl]ethyl}benzenesulfonamide]	5 to 100
C[C@]12Cc3cnn(-c4ccc(F)c(F)c4)c3C=C1CC[C@@]2(O)CCc1ccccc1S(N)(=O)=O [Example 142, 2-{2-[(4αS,5R)-1-(3,4-difluorophenyl)-5-hydroxy-4α-methyl-1,4,4α,5,6,7-hexahydrocyclopenta[f]indazol-5-yl]ethyl}benzenesulfonamide]	5 to 100
C[C@]12Cc3cnn(-c4ccc(F)cc4)c3C=C1CC[C@@]2(O)CCc1cccc(F)c1C#N [Example 145, 2-fluoro-6-{2-[(4αS,5R)-1-(4-fluorophenyl)-5-hydroxy-4α-methyl-1,4,4α,5,6,7-hexahydrocyclopenta[f]indazol-5-yl]ethyl}benzonitrile]	5 to 100
C[C@]12Cc3cnn(-c4ccc(F)cc4)c3C=C1CC[C@@]2(O)CCc1cc(F)ccc1C#N [Example 146, 4-fluoro-2-{2-[(4αS,5R)-1-(4-fluorophenyl)-5-hydroxy-4α-methyl-1,4,4α,5,6,7-hexahydrocyclopenta[f]indazol-5-yl]ethyl}benzonitrile]	5 to 100
C[C@]12Cc3cnn(-c4ccc(F)cc4)c3C=C1CC[C@@]2(O)CCc1ccccc1-c1ccc[nH]1 [Example 147, (4αS,5R)-1-(4-fluorophenyl)-4α-methyl-5-{2-[2-(1H-pyrrol-2-yl)phenyl]ethyl}-1,4,4α,5,6,7-hexahydrocyclopenta[f]indazol-5-ol]	5 to 100
C[C@]12Cc3cnn(-c4ccc(F)cc4)c3C=C1CC[C@@]2(O)CCc1cccc(F)c1CN [Example 153, (4αS,5R)-5-{2-[2-(aminomethyl)-3-fluorophenyl]ethyl}-1-(4-fluorophenyl)-4α-methyl-1,4,4α,5,6,7-hexahydrocyclopenta[f]indazol-5-ol]	5 to 100
C[C@]12Cc3cnn(-c4ccc(F)cc4)c3C=C1CC[C@@]2(O)CCc1cccc(F)c1C=O [Example 154, 2-fluoro-6-{2-[(4αS,5R)-1-(4-fluorophenyl)-5-hydroxy-4α-methyl-1,4,4α,5,6,7-hexahydrocyclopenta[f]indazol-5-yl]ethyl}benzaldehyde]	5 to 100
C[C@]12Cc3cnn(-c4ccc(F)cc4)c3C=C1CC[C@@]2(O)CCc1cccc(F)c1C(=O)N1CC(=O)C1 [Example 155, 1-(2-fluoro-6-{2-[(4αS,5R)-1-(4-fluorophenyl)-5-hydroxy-4α-methyl-1,4,4α,5,6,7-hexahydrocyclopenta[f]indazol-5-yl]ethyl}benzoyl)azetidin-3-one]	5 to 100
C[C@]12Cc3cnn(-c4ccc(F)cc4)c3C=C1CC[C@@]2(O)CCc1ccccc1-c1cscn1 [Example 158, (4αS,5R)-1-(4-fluorophenyl)-4α-methyl-5-{2-[2-[1,3-thiazol-4-yl)phenyl]ethyl}-1,4,4α,5,6,7-hexahydrocyclopenta[f]indazol-5-ol]	5 to 100
C[C@]12Cc3cnn(-c4ccc(F)cc4)c3C=C1CC[C@@]2(O)CCc1cc(C(F)(F)F)ccc1C#N [Example 161, 2-{2-[(4αS,5R)-1-(4-fluorophenyl)-5-hydroxy-4α-methyl-1,4,4α,5,6,7-hexahydrocyclopenta[f]indazol-5-yl]ethyl}-4-(trifluoromethyl)benzonitrile]	5 to 100
Cc1ccc(C#N)c(CC[C@]2(O)CCC3=Cc4c(cnn4-c4ccc(F)cc4)C[C@@]32C)c1 [Example 162, 2-{2-[(4αS,5R)-1-(4-fluorophenyl)-5-hydroxy-4α-methyl-1,4,4α,5,6,7-hexahydrocyclopenta[f]indazol-5-yl]ethyl}-4-methylbenzonitrile]	5 to 100
C[C@]12Cc3cnn(-c4ccc(F)cc4)c3C=C1CC[C@@]2(O)CCc1ccc(C(F)(F)F)cc1C#N [Example 164, 2-{2-[(4αS,5R)-1-(4-fluorophenyl)-5-hydroxy-4α-methyl-1,4,4α,5,6,7-hexahydrocyclopenta[f]indazol-5-yl]ethyl}-5-(trifluoromethyl)benzonitrile]	5 to 100
CO[C@@]1(CCc2ccccc2C(N)=O)CCC2=Cc3c(cnn3-c3ccc(F)cc3)C[C@@]21C [Example 165, 2-{2-[(4αS,5R)-1-(4-fluorophenyl)-5-methoxy-4α-methyl-1,4,4α,5,6,7-hexahydrocyclopenta[f]indazol-5-yl]ethyl}benzamide]	5 to 100
C[C@]12Cc3cnn(-c4ccc(F)cc4)c3C=C1CC[C@@]2(O)CCc1cc(F)ccc1C(N)=O [Example 166, 4-fluoro-2-{2-[(4αS,5R)-1-(4-fluorophenyl)-5-hydroxy-4α-methyl-1,4,4α,5,6,7-hexahydrocyclopenta[f]indazol-5-yl]ethyl}benzamide]	5 to 100
C[C@]12Cc3cnn(-c4ccccc4)c3C=C1CC[C@@]2(O)CCc1cccc(F)c1C(N)=O [Example 167, 2-fluoro-6-{2-[(4αS,5R)-5-hydroxy-4α-methyl-1-phenyl-1,4,4α,5,6,7-hexahydrocyclopenta[f]indazol-5-yl]ethyl}benzamide]	5 to 100
C[C@]12Cc3cnn(-c4ccc(F)cc4)c3C=C1CC[C@@]2(O)CCc1cccc(Cl)c1C(N)=O [Example 169, 2-chloro-6-{2-[(4αS,5R)-1-(4-fluorophenyl)-5-hydroxy-4α-methyl-1,4,4α,5,6,7-hexahydrocyclopenta[f]indazol-5-yl]ethyl}benzamide]	5 to 100
C[C@]12Cc3cnn(-c4ccc(F)cc4)c3C=C1CC[C@@]2(O)CCc1cc(Cl)ccc1C(N)=O [Example 171, 4-chloro-2-{2-[(4αS,5R)-1-(4-fluorophenyl)-5-hydroxy-4α-methyl-1,4,4α,5,6,7-hexahydrocyclopenta[f]indazol-5-yl]ethyl}benzamide]	5 to 100
